Experimental data from article PMC12505902, “Inhibitors of trehalose-6-phosphate synthase activity in fungal pathogens compromise thermal tolerance pathways” (mBio, 2025).

Tests used:
6xHis-CnTps1 [1] = target: T1, 6xHis-CnTps1 (Cryptococcus neoformans var. grubii, UniProt J9VJZ1); assay: Glo-melt thermal shift assay; format: binding; settings: 1 µM protein, 2 mM 4456dh (Fig 2 legend), incubated overnight at 4°C
Description: (§1) Fig 2 4456dh binds Tps1 and inhibits Tps1 activity. (A) Structure of 4456dh. (B and C) Glo-melt thermal shift assays reveal 4456dh destabilizes 6xHis-CaTps1 (B) and 6xHis-CnTps1 (C). The first derivative of the raw data was used to determine the melting temperature of 1 µM 6xHis-CaTps1 (B) and 1 µM 6xHis-CnTps1 (C) treated without (black) or with 2 mM 4456dh (red). […] The resulting dose-response curves were fitted to a one-site binding model to extract Kd values; the SD was calculated using the Kd values from each independent experiment (n = 3). (F) Tps1 enzyme activity assay with 5 µM 6xHis-CaTps1 (F) and 6xHis-CnTps1 (G) ±1 mM 4456dh. Error bars represent SE. Comparison to control, untreated 6xHis-CaTps1, was performed using Student’s t-test; **P < 0.01 and ***P < 0.001.
(§2) Thermal shift assays were completed to determine if 4456dh binds Tps1. […]
(§3) 82 determined by SDS-PAGE analysis, were pooled and concentrated to 1 mg/mL for downstream […]
(§4) 93 The data were acquired with MO.Control 1.5.3 (NanoTemper Technologies GmbH). Recorded
(§5) 94 data were analyzed with MO.Affinity Analysis 2.2.7 (NanoTemper Technologies GmbH). […]
(§6) 100 2X Glo-melt dye. Thermal denaturation was measured using an RT-PCR thermocycler (BioRad) […]
(§7) 102 determined by identifying the inflection point of the derivative data. […]
(§8) 104 The catalytic activity of C. albicans Tps1 and C. neoformans Tps1 was measured via a continuous […]

6xHis-CaTps1 [2] = target: T2, 6xHis-CaTps1 (Candida albicans, UniProt Q92410); assay: Glo-melt thermal shift assay; format: binding; settings: 1 µM protein, 2 mM 4456dh (Fig 2 legend), incubated overnight at 4°C
T2 construct: Briefly, the full-length; thrombin cleavage site (pET-28a linker) (N); made in house; host or cells: E. coli BL21(DE3)pLysS
T2 sequence (Q92410 1-478): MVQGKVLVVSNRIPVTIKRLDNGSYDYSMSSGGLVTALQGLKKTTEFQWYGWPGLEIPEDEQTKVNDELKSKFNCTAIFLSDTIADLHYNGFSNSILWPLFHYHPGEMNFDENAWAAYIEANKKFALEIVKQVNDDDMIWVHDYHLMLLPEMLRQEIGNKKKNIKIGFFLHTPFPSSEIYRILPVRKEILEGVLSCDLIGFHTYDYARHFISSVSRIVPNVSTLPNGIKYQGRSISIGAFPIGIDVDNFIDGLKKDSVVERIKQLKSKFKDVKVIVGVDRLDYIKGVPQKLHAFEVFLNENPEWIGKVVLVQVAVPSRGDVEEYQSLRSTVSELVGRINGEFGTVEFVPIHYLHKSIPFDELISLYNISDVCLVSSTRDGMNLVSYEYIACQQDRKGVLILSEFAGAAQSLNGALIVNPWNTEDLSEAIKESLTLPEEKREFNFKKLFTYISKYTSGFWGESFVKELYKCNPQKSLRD
Description: as §1, §2, §3, §4, §5, §6, §7, §8

6xHis-CnTps1 [3] = target: T1, 6xHis-CnTps1; assay: Microscale thermophoresis (MST); settings: label-free MST, one-site binding model, n = 3, SD
Description: as §1, with “Comparison to control, untreated 6xHis-CaTps1, was performed using Student’s t-test; **P < 0.01 and ***P < 0.001.” left out
(§9) Given the intrinsic fluorescence of CaTps1 and CnTps1, we were able to detect binding without the use of additional fluorophores. […]
as §3, §4, §5, §6, §7, §8
(§10) 111 reaction rate was recorded using a plate reader (Tecan). […]

6xHis-CaTps1 [4] = target: T2, 6xHis-CaTps1; assay: Microscale thermophoresis (MST); settings: label-free MST, one-site binding model, n = 3, SD
Description: as §1, with “Comparison to control, untreated 6xHis-CaTps1, was performed using Student’s t-test; **P < 0.01 and ***P < 0.001.” left out
as §9, §3, §4, §5, §6, §7, §8, §10

T1 sequence (J9VJZ1 entry or part of it): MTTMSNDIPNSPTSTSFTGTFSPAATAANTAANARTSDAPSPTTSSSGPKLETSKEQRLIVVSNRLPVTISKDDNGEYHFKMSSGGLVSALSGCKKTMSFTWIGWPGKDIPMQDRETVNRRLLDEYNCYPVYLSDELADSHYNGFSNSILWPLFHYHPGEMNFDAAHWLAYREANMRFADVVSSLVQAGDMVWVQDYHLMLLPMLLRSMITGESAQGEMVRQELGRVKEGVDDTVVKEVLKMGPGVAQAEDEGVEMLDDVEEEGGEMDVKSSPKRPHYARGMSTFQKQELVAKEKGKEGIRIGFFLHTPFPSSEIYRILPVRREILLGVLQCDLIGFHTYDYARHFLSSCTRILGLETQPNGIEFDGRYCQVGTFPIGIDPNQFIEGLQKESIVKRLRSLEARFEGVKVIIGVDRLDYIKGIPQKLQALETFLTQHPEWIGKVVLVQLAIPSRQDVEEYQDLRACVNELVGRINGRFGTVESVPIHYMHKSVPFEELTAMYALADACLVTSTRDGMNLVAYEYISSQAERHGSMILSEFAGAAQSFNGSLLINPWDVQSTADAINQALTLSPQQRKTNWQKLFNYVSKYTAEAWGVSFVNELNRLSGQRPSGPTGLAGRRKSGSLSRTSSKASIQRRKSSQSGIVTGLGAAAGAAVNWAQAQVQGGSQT

Structure (SMILES): Cn1cc(-c2csc(NC(=O)Cc3ccccn3)n2)cn1 [Compound 4456dh]
- effect on melting temperature (6xHis-CnTps1 [1]): decreased the melting temperature
- effect on melting temperature (6xHis-CaTps1 [2]): decreased the melting temperature
- Kd (6xHis-CnTps1 [3]): 33.4 µM
- Kd (6xHis-CaTps1 [4]): 7.1 µM
